Read-outs that look alike come from different tables or passages of the source.
How the values were obtained:
[1] = test system: cells; settings: Rosenzweig et al. 1999; cited from earlier work
[2] = target: PI 3-kinase; settings: stated as the same as for DNA-PK; cited from earlier work
[3] = target: Mammalian DNA-PK (Homo sapiens, UniProt P78527); experiment: DNA-PK inhibition assay (ELISA of p53 Ser15 phosphorylation of GST-p53N66); assay type: biochemical, Mammalian (isolated from HeLa cell nuclear extract)
Procedure: In order to assess the inhibitory action of the compounds against DNA-PK in vitro, the following assay was used to determine IC50 values.
To the assay mix, varying concentrations of inhibitor (in DMSO at a final concentration of 1%) were added. After 10 minutes of incubation, ATP was added to give a final concentration of […] along with a 30 mer double stranded DNA oligonucleotide (final concentraion of 0.5 ng/ml) to initiate the reaction. After 1 hour with shaking, 150 μl of phosphate buffered saline (PBS) was added to the reaction and 5 μl then transferred to a 96 well opaque white plate containing 45 μl of PBS per well where the GSTp53N66 substrate was allowed to bind to the wells for 1 hour. To detect the phosphorylation event on the serine 15 residue of p53 elicited by DNA-PK a p53 phosphoserine-15 antibody (Cell Signaling Technology) was used in a basic ELISA procedure. An anti-rabbit HRP conjugated secondary antibody (Pierce) was then employed in the ELISA before the addition of chemiluminescence reagent. (NEN Renaissance) to detect the signal as measured by chemiluminescent counting via a TopCount NXT (Packard).
The enzyme activity for each compound is then calculated using the following equation: […]
The results are discussed below as IC50 values (the concentration at which 50% of the enzyme activity is inhibited). These are determined over a range of different concentrations, normally from 10 μM down to 0.001 μM. Such IC50 values are used as comparative values to identify increased compound potencies.

[4] = test system: HeLa cells; experiment: Survival Enhancement Ratio (clonogenic survival after 2 Gray irradiation); assay type: cell-based, human; settings: example compound of WO 03/024949; concentration not given
Procedure: The Survival Enhancement Ratio (SER) is a ratio of the enhancement of cell kill elicited by the DNA-PK inhibitor after 2 Grays of irradiation compared to […]. DNA-PK inhibitors were used at a concentration of 25, 50, 100 and/or 500 nM. Radiation was delivered by a Faxitron 43855D machine at a dose rate of 1 Gy pre minute The SER at 2 Gray irradiation was calculated from the formula:
The degree of cell killing was monitored by a standard clonogenic survival assay. Briefly, tissue culture treated 6-well plates were seeded with HeLa cells at an appropriate concentration to give 100-200 colonies per well and returned to the incubator in order to allow the cells to attach. Four hours later, compound or vehicle control was added to the cells. The cells were then incubated for 1 hour in the presence of inhibitor prior to irradiation at 2 Gray using a Faxitron 43855D cabinet X-ray machine. The cells were then incubated for a further 16 hours before the media was replaced with fresh media in the absence of DNA-PK inhibitor. After 8 days, colonies formed were fixed and stained with Giemsa (Sigma, Poole, UK) and scored using an automated colony counter (Oxford Optronics Ltd, Oxford, UK). The data was calculated as described above.

[5] = DNA-PK from HeLa nuclear extract, mean value, read-out: mean IC50

Structure (SMILES)	IC50 [3, 5]	further results
O=c1cc(N2CCOCC2)oc2c(-c3ccccc3)cccc12 [LY294002]		sensitisation of cells to the effects of IR [1]: weakly sensitise cells to the effects of IR; IC50 [2]: ~1000 nM
O=c1cc(N2CCOCC2)oc2c(-c3ccc(CNCCc4ccccc4)c4c3sc3ccccc34)cccc12 [4ct]	530 nM	
CN(C)[C@H]1CCN(Cc2ccc(-c3cccc4c(=O)cc(N5CCOCC5)oc34)c3sc4ccccc4c23)C1 [4bu]	1.32 nM	
CN(C)CCN(C)Cc1ccc(-c2cccc3c(=O)cc(N4CCOCC4)oc23)c2sc3ccccc3c12 [4u]	27.3 nM	
N[C@@H]1CCCC[C@@H]1NCc1ccc(-c2cccc3c(=O)cc(N4CCOCC4)oc23)c2sc3ccccc3c12 [4bn]	115 nM	
O=c1cc(N2CCOCC2)oc2c(-c3ccc(CNCCO)c4c3sc3ccccc34)cccc12 [4c]	22.6 nM	
CN(CC(=O)O)Cc1ccc(-c2cccc3c(=O)cc(N4CCOCC4)oc23)c2sc3ccccc3c12 [4ac]	238 nM	
O=c1cc(N2CCOCC2)oc2c(-c3ccc(CNCCN4CCCCC4)c4c3sc3ccccc34)cccc12 [4co]	62.5 nM	
O=c1cc(N2CCOCC2)oc2c(-c3ccc(CN4CCN(CCO)CC4)c4c3sc3ccccc34)cccc12 [4ab]	1.39 nM	
CC(=O)N1CCN(Cc2ccc(-c3cccc4c(=O)cc(N5CCOCC5)oc34)c3sc4ccccc4c23)CC1 [4z]	77.9 nM	
O=c1cc(N2CCOCC2)oc2c(-c3ccc(CN4CCC[C@@H]4CO)c4c3sc3ccccc34)cccc12 [4bt]	174 nM	
COCCN1CCN(Cc2ccc(-c3cccc4c(=O)cc(N5CCOCC5)oc34)c3sc4ccccc4c23)CC1 [4t]	7.92 nM	
CN1CCC(NCc2ccc(-c3cccc4c(=O)cc(N5CCOCC5)oc34)c3sc4ccccc4c23)CC1 [4cl]	47.2 nM	
CCN(CC)Cc1ccc(-c2cccc3c(=O)cc(N4CCOCC4)oc23)c2sc3ccccc3c12 [4y]	1960 nM	
O=c1cc(N2CCOCC2)oc2c(-c3ccc(CNCc4ccncc4)c4c3sc3ccccc34)cccc12 [4cg]	139 nM	
CN(C)CCNCc1ccc(-c2cccc3c(=O)cc(N4CCOCC4)oc23)c2sc3ccccc3c12 [4d]	12.6 nM	
CC(C)N1CCN(Cc2ccc(-c3cccc4c(=O)cc(N5CCOCC5)oc34)c3sc4ccccc4c23)CC1 [4aa]	1.75 nM	
O=c1cc(N2CCOCC2)oc2c(-c3ccc(CN4CCCC(C(F)(F)F)C4)c4c3sc3ccccc34)cccc12 (stereo not shown) [4ap]	2140 nM	
O=c1cc(N2CCOCC2)oc2c(-c3ccc(CNCc4cc[nH]n4)c4c3sc3ccccc34)cccc12 [4be]	91.7 nM	
CN(C)C1CCN(Cc2ccc(-c3cccc4c(=O)cc(N5CCOCC5)oc34)c3sc4ccccc4c23)CC1 [4ae]	177 nM	

Structure (SMILES)	IC50 [3, 5]	further results
COC1CCN(Cc2ccc(-c3cccc4c(=O)cc(N5CCOCC5)oc34)c3sc4ccccc4c23)CC1 [4am]	415 nM	
O=c1cc(N2CCOCC2)oc2c(-c3ccc(CNn4cnnc4)c4c3sc3ccccc34)cccc12 [4cp]	94.6 nM	
O=c1cc(N2CCOCC2)oc2c(-c3ccc(CN4CCOC(CO)C4)c4c3sc3ccccc34)cccc12 (stereo not shown) [4al]	72.5 nM	
O=c1cc(N2CCOCC2)oc2c(-c3ccc(CN4CCOCC4)c4c3sc3ccccc34)cccc12 [4ai]	102 nM	
Cn1cccc1CNCc1ccc(-c2cccc3c(=O)cc(N4CCOCC4)oc23)c2sc3ccccc3c12 [4ce]	291 nM	
O=c1cc(N2CCOCC2)oc2c(-c3ccc(CN4CCCC(CO)C4)c4c3sc3ccccc34)cccc12 (stereo not shown) [4r]	124 nM	
CN1CCN(Cc2ccc(-c3cccc4c(=O)cc(N5CCOCC5)oc34)c3sc4ccccc4c23)CC1 [4v]	1.31 nM	
CN(C)C1CCCN(Cc2ccc(-c3cccc4c(=O)cc(N5CCOCC5)oc34)c3sc4ccccc4c23)C1 (stereo not shown) [4au]	19.8 nM	
Cc1cc(NCc2ccc(-c3cccc4c(=O)cc(N5CCOCC5)oc34)c3sc4ccccc4c23)on1 [4bg]	299 nM	
O=c1cc(N2CCOCC2)oc2c(-c3ccc(CNC4=NCCS4)c4c3sc3ccccc34)cccc12 [4cf]	174 nM	
O=c1cc(N2CCOCC2)oc2c(-c3ccc(CN4CCCCO4)c4c3sc3ccccc34)cccc12 [4bo]	2070 nM	
O=c1cc(N2CCOCC2)oc2c(-c3ccc(CNCc4cccnc4)c4c3sc3ccccc34)cccc12 [4ch]	98.5 nM	
C=CCNCc1ccc(-c2cccc3c(=O)cc(N4CCOCC4)oc23)c2sc3ccccc3c12 [4i]	883 nM	
COC1CCCN(Cc2ccc(-c3cccc4c(=O)cc(N5CCOCC5)oc34)c3sc4ccccc4c23)C1 (stereo not shown) [4af]	232 nM	
CN(C)C1CCN(Cc2ccc(-c3cccc4c(=O)cc(N5CCOCC5)oc34)c3sc4ccccc4c23)C1 (stereo not shown) [4ah]	1.21 nM	
N#CCNCc1ccc(-c2cccc3c(=O)cc(N4CCOCC4)oc23)c2sc3ccccc3c12 [4ar]	29.7 nM	
O=c1cc(N2CCOCC2)oc2c(-c3ccc(CN4CCCCC4)c4c3sc3ccccc34)cccc12 [4cs]	886 nM	
O=c1cc(N2CCOCC2)oc2c(-c3ccc(CNCc4nccs4)c4c3sc3ccccc34)cccc12 [4cj]	193 nM	
CN1CCCCC1CNCc1ccc(-c2cccc3c(=O)cc(N4CCOCC4)oc23)c2sc3ccccc3c12 (stereo not shown) [4bc]	10.5 nM	
O=c1cc(N2CCOCC2)oc2c(-c3ccc(CN4CCCC(F)(F)C4)c4c3sc3ccccc34)cccc12 [4az]	2020 nM	

Structure (SMILES)	IC50 [3, 5]	further results
O=c1cc(N2CCOCC2)oc2c(-c3ccc(CN4CCC(O)C4)c4c3sc3ccccc34)cccc12 (stereo not shown) [4l]	30.3 nM	
O=c1cc(N2CCOCC2)oc2c(-c3ccc(CN4CCSC4)c4c3sc3ccccc34)cccc12 [4bq]	433 nM	
O=c1cc(N2CCOCC2)oc2c(-c3ccc(CN4CCC[C@H]4CO)c4c3sc3ccccc34)cccc12 [4by]	98.6 nM	
O=c1cc(N2CCOCC2)oc2c(-c3ccc(CNCCc4ccccn4)c4c3sc3ccccc34)cccc12 [4aw]	69.6 nM	
O=c1cc(N2CCOCC2)oc2c(-c3ccc(CN4CCCNCC4)c4c3sc3ccccc34)cccc12 [4cr]	6.67 nM	
CN1CCCC1CCNCc1ccc(-c2cccc3c(=O)cc(N4CCOCC4)oc23)c2sc3ccccc3c12 (stereo not shown) [4av]	48.6 nM	
CN(Cc1ccccc1)Cc1ccc(-c2cccc3c(=O)cc(N4CCOCC4)oc23)c2sc3ccccc3c12 [4s]	942 nM	
Cc1n[nH]c(NCc2ccc(-c3cccc4c(=O)cc(N5CCOCC5)oc34)c3sc4ccccc4c23)n1 [4bi]	92.9 nM	
CC1CN(Cc2ccc(-c3cccc4c(=O)cc(N5CCOCC5)oc34)c3sc4ccccc4c23)CCN1C (stereo not shown) [4cb]	3.74 nM	
O=C(C1CC1)N1CCN(Cc2ccc(-c3cccc4c(=O)cc(N5CCOCC5)oc34)c3sc4ccccc4c23)CC1 [4ag]	251 nM	
O=c1cc(N2CCOCC2)oc2c(-c3ccc(CN4CC[C@H](F)C4)c4c3sc3ccccc34)cccc12 [4bw]	438 nM	
C[C@H]1COCCN1Cc1ccc(-c2cccc3c(=O)cc(N4CCOCC4)oc23)c2sc3ccccc3c12 [4aj]	406 nM	
O=c1cc(N2CCOCC2)oc2c(-c3cccc4c3sc3ccccc34)cccc12 [reference compound]		IC50 [3]: 10 to 12 nM; SER [4]: 1.3
O=c1cc(N2CCOCC2)oc2c(-c3ccc(CNCCCn4ccnc4)c4c3sc3ccccc34)cccc12 [4ax]	26.5 nM	
CN(Cc1ccc(-c2cccc3c(=O)cc(N4CCOCC4)oc23)c2sc3ccccc3c12)Cc1ccnn1C [4cc]	321 nM	
CN(C)Cc1ccc(-c2cccc3c(=O)cc(N4CCOCC4)oc23)c2sc3ccccc3c12 [4m]	293 nM	
CCN1CCN(Cc2ccc(-c3cccc4c(=O)cc(N5CCOCC5)oc34)c3sc4ccccc4c23)CC1 [4aq]	5.59 nM	
O=c1cc(N2CCOCC2)oc2c(-c3ccc(CNCC4CCCO4)c4c3sc3ccccc34)cccc12 (stereo not shown) [4a]	31.2 nM	
O=c1cc(N2CCOCC2)oc2c(-c3ccc(CN4CC[C@@H](F)C4)c4c3sc3ccccc34)cccc12 [4bp]	170 nM	
